Assay: Antagonist activity at CXCR3 assessed as ITAC-mediated migration of human PBMC in presence of 100% human plasma

| IC50 | Compound |
| --- | --- |
| 88 nM | CCS(=O)(=O)CCN(C(=O)Cc1ccc(F)c(C(F)(F)F)c1)[C@H](C)c1nc2c(c(=O)n1-c1ccc(C#N)cc1)CCCN2C [(R)-N-(1-(3-(4-cyanophenyl)-8-methyl-4-oxo-3,4,5,6,7,8-hexahydropyrido[2,3-d]pyrimidin-2-yl)ethyl)-N-(2-(ethylsulfonyl)ethyl)-2-(4-fluoro-3-(trifluoromethyl)phenyl)acetamide] |
| 72 nM | CCS(=O)(=O)CCN(C(=O)Cc1ccc(F)c(C(F)(F)F)c1)[C@H](C)c1nc2ccccc2cc1-c1ccc(C#N)cc1 [(R)-N-(1-(3-(4-cyanophenyl)quinolin-2-yl)ethyl)-N-(2-(ethylsulfonyl)ethyl)-2-(4-fluoro-3-(trifluoromethyl)phenyl)acetamide] |
| 72 nM | CCS(=O)(=O)CCN(C(=O)Cc1ccc(F)c(C(F)(F)F)c1)[C@H](C)c1nc2ccccn2c1-c1ccc(C#N)cc1 [(R)-N-(1-(3-(4-cyanophenyl)H-imidazo[1,2-a]pyridin-2-yl)ethyl)-N-(2-(ethylsulfonyl)ethyl)-2-(4-fluoro-3-(trifluoromethyl)phenyl)acetamide] |

More lines, now with the values behind:

| Compound | IC50 |
| --- | --- |
| CCS(=O)(=O)CCN(C(=O)Cc1ccc(F)c(C(F)(F)F)c1)[C@H](C)c1nc2ccccc2n1-c1ccc(C#N)cc1 [(R)-N-(1-(1-(4-cyanophenyl)-1H-benzo[d]imidazol-2-yl)ethyl)-N-(2-(ethylsulfonyl)ethyl)-2-(4-fluoro-3-(trifluoromethyl)phenyl)acetamide] | 521 nM |
| CCS(=O)(=O)CCN(C(=O)Cc1ccc(F)c(C(F)(F)F)c1)[C@H](C)c1nc2ncccc2cc1-c1ccc(C#N)cc1 [(R)-N-(1-(3-(4-cyanophenyl)-1,8-naphthyridin-2-yl)ethyl)-N-(2-(ethylsulfonyl)ethyl)-2-(4-fluoro-3-(trifluoromethyl)phenyl)acetamide] | 48 nM |

— BindingDB's records for doi:10.1016/j.bmcl.2007.11.060 (Amgen, 2008)
